The values that follow come from ChEMBL document CHEMBL5465560, “Selectivity Literature for EUbOPEN Chemogenomic Library” (2024).

Data set [1] concerns the target T1, MAP kinase-activated protein kinase 5 (Homo sapiens) (UniProt Q8IW41).
T1 sequence (whole entry): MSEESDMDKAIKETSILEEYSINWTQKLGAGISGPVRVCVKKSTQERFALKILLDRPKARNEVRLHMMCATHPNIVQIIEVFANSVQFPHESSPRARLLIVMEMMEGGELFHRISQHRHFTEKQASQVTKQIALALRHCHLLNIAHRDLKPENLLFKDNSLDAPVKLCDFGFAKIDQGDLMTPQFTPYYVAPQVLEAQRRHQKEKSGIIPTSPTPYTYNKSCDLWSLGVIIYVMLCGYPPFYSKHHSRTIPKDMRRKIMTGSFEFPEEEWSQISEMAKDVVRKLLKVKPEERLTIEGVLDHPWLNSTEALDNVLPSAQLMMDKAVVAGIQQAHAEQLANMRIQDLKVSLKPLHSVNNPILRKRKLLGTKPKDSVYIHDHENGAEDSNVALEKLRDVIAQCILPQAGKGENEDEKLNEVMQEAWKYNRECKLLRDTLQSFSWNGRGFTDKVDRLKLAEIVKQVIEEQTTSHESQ
Briefly: Selectivity interaction (ProQinase) EUB0000171b MAPKAPK5.

Data set [2] has as its target Mast/stem cell growth factor receptor Kit (Homo sapiens, UniProt P10721). In words: Selectivity interaction (KinomeScan (DiscoverX)) EUB0001079a KIT. As to conditions: at 1 µM.
Data set [3] deals with Mitogen-activated protein kinase 6 (Homo sapiens) (UniProt Q16659). In words: Selectivity interaction (KinomeScan (DiscoverX)) EUB0000092b MAPK6. The conditions noted are these: at 10 µM.
Mitogen-activated protein kinase 6 (Homo sapiens), sequence (Q16659 whole entry): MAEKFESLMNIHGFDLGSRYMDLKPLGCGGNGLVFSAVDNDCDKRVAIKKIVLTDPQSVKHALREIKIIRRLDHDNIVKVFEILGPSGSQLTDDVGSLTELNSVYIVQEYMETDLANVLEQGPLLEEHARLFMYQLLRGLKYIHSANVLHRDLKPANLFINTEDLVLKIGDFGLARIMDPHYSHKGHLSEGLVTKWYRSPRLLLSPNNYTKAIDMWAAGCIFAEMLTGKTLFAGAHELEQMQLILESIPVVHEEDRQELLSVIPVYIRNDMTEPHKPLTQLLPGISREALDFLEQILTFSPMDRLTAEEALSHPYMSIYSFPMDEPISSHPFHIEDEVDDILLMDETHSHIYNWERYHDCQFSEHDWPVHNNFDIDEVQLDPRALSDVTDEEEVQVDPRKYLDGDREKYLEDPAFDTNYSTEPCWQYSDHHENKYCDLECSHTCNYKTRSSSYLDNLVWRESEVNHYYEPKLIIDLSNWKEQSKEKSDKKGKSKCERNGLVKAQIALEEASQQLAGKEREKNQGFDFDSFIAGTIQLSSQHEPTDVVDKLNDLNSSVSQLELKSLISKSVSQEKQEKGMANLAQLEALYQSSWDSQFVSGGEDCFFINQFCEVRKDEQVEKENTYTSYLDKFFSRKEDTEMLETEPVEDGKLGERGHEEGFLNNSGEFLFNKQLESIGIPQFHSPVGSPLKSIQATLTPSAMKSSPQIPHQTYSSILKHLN
The target of data set [4] is Ribosomal protein S6 kinase alpha-4 (Homo sapiens) (UniProt O75676). In words: Selectivity interaction (KinomeScan (DiscoverX)) EUB0000655a RPS6KA4. As to conditions: at 10 µM.
The target in data set [5] is hERG (KCNH2) (Homo sapiens, UniProt Q12809). In words: Selectivity interaction (Panel of kinases, GPCRs, ion channels and transporters (enzymatic assay)) EUB0000223bCl KCNH2.
hERG (KCNH2), sequence (Q12809 whole entry, canonical isoform): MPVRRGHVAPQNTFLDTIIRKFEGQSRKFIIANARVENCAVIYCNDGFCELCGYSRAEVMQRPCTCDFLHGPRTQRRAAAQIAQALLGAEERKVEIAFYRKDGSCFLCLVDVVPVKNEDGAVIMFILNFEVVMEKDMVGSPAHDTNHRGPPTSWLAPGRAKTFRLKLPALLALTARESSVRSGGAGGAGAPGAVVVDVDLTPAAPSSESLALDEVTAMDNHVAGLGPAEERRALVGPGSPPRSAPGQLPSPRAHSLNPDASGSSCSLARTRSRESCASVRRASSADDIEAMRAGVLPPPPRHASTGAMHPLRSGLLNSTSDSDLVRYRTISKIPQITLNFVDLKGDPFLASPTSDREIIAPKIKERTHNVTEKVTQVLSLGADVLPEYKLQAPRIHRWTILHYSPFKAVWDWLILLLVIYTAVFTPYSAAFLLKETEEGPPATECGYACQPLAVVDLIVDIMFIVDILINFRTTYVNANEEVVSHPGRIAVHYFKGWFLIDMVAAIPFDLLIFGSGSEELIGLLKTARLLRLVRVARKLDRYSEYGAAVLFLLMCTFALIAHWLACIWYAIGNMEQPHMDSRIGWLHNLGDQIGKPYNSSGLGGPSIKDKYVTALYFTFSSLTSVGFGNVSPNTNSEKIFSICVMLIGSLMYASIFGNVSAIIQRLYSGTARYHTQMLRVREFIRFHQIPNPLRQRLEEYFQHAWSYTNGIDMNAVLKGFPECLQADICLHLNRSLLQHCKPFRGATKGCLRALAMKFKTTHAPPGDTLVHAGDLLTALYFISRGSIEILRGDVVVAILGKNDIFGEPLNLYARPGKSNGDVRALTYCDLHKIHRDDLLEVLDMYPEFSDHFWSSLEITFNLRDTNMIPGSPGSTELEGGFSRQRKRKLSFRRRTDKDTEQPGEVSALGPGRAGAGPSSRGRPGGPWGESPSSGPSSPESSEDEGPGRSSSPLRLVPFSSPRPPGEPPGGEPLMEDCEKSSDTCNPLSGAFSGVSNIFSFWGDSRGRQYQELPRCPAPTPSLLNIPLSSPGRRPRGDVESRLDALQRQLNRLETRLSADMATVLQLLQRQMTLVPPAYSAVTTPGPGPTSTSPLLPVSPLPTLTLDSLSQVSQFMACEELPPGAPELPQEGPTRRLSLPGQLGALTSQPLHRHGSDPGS
Data set [6] addresses T2, Phosphorylase b kinase gamma catalytic chain, liver/testis isoform (Homo sapiens) (UniProt P15735).
T2 sequence (whole entry): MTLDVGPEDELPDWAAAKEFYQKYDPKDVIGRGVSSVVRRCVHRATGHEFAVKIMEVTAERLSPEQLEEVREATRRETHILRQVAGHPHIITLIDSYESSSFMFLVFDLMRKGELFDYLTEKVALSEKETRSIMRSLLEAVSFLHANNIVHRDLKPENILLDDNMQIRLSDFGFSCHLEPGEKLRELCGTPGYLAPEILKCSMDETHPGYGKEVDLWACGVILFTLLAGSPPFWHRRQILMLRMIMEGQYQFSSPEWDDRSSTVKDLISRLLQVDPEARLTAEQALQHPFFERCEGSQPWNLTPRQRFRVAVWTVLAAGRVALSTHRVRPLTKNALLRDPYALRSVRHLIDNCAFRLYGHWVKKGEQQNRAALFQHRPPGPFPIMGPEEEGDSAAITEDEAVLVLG
Briefly: Selectivity interaction (KinomeScan (DiscoverX)) EUB0000666a PHKG2. The conditions noted are these: at 10 µM.

Data set [7] deals with RAF proto-oncogene serine/threonine-protein kinase (Homo sapiens) (UniProt P04049). In words: Selectivity interaction (Kinase panel (Invitrogen)) EUB0000639a RAF1. As to conditions: at 200 nM.
RAF proto-oncogene serine/threonine-protein kinase (Homo sapiens), sequence (P04049 whole entry): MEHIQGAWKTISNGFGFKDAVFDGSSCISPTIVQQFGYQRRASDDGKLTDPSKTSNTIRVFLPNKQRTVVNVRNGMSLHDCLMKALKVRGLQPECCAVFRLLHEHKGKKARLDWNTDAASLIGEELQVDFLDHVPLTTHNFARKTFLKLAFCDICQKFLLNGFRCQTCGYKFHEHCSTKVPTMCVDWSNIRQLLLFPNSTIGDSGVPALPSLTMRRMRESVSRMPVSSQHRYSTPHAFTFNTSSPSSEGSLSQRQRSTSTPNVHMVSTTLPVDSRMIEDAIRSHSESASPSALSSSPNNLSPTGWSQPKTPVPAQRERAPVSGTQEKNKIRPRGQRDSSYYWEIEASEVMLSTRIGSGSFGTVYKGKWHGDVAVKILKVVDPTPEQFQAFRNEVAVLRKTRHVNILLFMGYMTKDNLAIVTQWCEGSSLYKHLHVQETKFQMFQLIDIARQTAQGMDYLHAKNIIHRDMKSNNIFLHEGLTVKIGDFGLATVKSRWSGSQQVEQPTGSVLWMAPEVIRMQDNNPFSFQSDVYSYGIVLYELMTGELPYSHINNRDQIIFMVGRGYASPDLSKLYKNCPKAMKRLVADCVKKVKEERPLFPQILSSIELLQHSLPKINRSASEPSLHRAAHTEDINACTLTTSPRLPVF
The target of data set [8] is Cyclin-dependent kinase-like 3 (Homo sapiens) (UniProt Q8IVW4). Briefly: Selectivity interaction (KinomeScan (DiscoverX)) EUB0000229b CDKL3. As to conditions: at 10 µM.
Cyclin-dependent kinase-like 3 (Homo sapiens), sequence (Q8IVW4 whole entry, looked up): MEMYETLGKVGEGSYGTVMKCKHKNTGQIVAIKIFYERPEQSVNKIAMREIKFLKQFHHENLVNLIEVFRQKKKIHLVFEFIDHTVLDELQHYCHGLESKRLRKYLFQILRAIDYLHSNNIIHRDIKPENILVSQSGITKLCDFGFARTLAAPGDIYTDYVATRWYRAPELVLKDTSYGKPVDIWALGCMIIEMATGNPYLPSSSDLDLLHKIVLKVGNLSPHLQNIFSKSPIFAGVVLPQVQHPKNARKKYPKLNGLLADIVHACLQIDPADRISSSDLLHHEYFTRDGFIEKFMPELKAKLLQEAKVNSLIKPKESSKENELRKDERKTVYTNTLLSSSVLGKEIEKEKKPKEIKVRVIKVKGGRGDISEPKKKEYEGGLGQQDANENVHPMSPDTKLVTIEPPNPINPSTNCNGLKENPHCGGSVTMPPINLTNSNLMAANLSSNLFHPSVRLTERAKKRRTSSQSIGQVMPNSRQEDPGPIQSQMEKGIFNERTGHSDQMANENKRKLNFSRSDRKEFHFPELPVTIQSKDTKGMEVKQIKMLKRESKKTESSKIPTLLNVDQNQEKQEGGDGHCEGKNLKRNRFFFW
Data set [9] concerns the target T3, Serine/threonine-protein kinase D3 (Homo sapiens) (UniProt O94806).
T3 sequence (whole entry): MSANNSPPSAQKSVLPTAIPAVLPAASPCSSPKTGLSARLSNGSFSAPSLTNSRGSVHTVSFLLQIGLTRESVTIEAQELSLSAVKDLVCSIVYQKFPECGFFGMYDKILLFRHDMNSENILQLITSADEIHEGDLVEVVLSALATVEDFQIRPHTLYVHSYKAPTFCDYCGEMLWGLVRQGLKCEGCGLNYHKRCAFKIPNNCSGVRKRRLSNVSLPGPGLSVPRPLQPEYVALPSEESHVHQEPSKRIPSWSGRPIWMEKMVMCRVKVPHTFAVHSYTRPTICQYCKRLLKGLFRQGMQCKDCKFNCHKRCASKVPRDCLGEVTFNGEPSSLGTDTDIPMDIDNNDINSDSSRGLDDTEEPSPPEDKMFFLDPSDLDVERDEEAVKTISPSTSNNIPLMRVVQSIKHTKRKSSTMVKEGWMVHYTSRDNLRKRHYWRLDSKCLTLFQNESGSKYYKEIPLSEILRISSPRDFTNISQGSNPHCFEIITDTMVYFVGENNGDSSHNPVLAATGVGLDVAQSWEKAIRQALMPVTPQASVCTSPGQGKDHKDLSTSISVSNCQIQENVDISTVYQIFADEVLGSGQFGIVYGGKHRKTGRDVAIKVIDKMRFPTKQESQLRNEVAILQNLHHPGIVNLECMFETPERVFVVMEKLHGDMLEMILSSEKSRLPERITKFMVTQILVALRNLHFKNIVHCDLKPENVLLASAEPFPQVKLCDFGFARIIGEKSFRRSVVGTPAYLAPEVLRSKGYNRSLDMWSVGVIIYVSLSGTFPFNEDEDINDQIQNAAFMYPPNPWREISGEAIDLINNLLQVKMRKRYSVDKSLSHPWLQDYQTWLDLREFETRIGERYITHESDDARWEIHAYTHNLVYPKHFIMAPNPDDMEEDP
Briefly: Selectivity interaction (KinomeScan (DiscoverX)) EUB0000618a PRKD3. The conditions noted are these: at 10 µM.

The target of data set [10] is Serine/threonine-protein kinase PRP4 homolog (Homo sapiens) (UniProt Q13523). Briefly: Selectivity interaction (KinomeScan (DiscoverX)) EUB0000618a PRPF4. As to conditions: at 10 µM.
The target of data set [11] is Activin receptor type-2A (Homo sapiens) (UniProt P27037). Briefly: Selectivity interaction (KinomeScan (DiscoverX)) EUB0000618a ACVR2A. As to conditions: at 10 µM.
Activin receptor type-2A (Homo sapiens), sequence (P27037 whole entry): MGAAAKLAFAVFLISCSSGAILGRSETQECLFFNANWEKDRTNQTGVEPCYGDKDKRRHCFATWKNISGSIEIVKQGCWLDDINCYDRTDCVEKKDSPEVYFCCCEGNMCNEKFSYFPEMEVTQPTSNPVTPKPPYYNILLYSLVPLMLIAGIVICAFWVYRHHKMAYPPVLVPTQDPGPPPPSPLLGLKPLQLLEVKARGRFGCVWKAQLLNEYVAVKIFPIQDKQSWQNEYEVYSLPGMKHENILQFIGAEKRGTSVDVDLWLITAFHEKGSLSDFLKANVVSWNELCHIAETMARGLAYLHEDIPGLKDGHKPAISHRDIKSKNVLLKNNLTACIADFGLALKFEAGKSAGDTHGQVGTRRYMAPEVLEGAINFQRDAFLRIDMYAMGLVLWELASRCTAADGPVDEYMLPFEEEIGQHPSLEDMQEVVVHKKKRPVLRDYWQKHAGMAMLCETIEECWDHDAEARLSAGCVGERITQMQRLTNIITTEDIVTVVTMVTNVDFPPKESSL

Mast/stem cell growth factor receptor Kit, sequence (P10721 whole entry): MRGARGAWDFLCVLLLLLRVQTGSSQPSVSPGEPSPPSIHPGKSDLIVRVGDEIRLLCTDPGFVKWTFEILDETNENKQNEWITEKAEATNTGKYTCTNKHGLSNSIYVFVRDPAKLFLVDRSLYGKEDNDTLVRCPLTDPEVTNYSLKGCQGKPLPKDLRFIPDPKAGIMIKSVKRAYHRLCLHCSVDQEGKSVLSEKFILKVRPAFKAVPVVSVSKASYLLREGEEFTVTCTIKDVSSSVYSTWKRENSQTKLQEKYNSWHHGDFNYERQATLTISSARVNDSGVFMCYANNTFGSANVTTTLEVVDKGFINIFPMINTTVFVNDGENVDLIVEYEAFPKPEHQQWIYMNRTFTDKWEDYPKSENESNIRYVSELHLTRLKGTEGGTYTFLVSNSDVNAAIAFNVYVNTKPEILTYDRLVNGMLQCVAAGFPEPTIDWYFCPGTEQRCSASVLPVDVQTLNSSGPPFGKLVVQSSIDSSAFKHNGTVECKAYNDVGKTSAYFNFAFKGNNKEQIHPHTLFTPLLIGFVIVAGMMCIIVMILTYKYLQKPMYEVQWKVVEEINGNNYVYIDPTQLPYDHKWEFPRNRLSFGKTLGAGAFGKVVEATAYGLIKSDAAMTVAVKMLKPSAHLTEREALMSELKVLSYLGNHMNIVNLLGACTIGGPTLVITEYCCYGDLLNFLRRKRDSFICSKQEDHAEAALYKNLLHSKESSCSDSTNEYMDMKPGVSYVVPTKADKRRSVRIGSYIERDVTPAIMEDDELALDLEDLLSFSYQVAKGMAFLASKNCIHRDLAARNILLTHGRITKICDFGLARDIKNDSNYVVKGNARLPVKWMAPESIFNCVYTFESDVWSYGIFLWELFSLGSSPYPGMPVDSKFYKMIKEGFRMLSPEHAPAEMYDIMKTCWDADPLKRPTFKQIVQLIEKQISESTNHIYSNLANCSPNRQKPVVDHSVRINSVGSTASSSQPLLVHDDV

In the case of `C=CC(=O)Nc1cccc(C(=O)Nc2ccc(Nc3cc(-c4[nH]c(SC)nc4C)ccn3)cc2)c1`, the % of control in [1] (at 1 µM) was 96%; in data set [1] (at 5 µM), 97%.

For the molecule `Nc1cnc(N2CCc3cc(S(=O)(=O)Nc4c(F)cc(Cl)cc4F)cc(N4CCCC4=O)c32)nc1` [TP-020n], in data set [2], the % of control was 100%.

For the molecule `CCC(=O)N1CCN(c2ccc(-n3c(=O)ccc4cnc5ccc(-c6cnc7ccccc7c6)cc5c43)cc2C(F)(F)F)CC1`, the % of control in data set [3] stood at 1.8%.

In data set [4], `CN(C)CCOc1ccc(-c2nc(-c3ccncc3)c(-c3ccc4c(c3)CC/C4=N\O)[nH]2)cc1` registered a % of control of 100%.

Molecule `COc1cc(C(=O)N2CC[C@@H](O)[C@@H](N)C2)cc2nc(-c3cc4ccccc4n3CC3CC3)n(C)c12` gave an XC50 in [5] of 31.6 µM.

Take `O=C(NOC[C@H](O)CO)c1ccc(F)c(F)c1Nc1ccc(I)cc1F`: the % of control in data set [6] was 93%.

`CC[C@@H]1[C@H](F)C(=O)N[C@@H]1COc1nccc2cc(C(N)=O)c(OC)cc12` [ZIMLOVISERTIB] came in with a % of inhibition in [7] of 10.1%.

`COc1cc(N(C)c2ccnc3ccc(C(F)(F)F)cc23)cc(OC)c1OC` had a % binding in data set [8] of 88%.

For the molecule `O[C@H]1CC[C@H](Nc2ncc3nc(Nc4c(F)cc(F)cc4F)n([C@H]4CCOC4)c3n2)CC1`, the % of control was 84% in data set [9], 100% in [10] and 92% in data set [11].
